Source: patent US20200338156A1, “C[…] (CYCLO-HIS PRO) FOR PREVENTING, IMPROVING OR TREATING OF BONE LOSS RELATED DISEASE” (NovMetaPharma Co., Ltd., priority 2017, published 2020)
“Also recorded” adds a separate entry of the source.

Legend:
[1] = test system: ovariectomized animal model; assay: Osteoporosis alleviation effect in ovariectomized animal model, micro CT of femur; assay type: in vivo, SD female mice
Procedure: To determine the effect of alleviating osteoporosis in an ovariectomized animal model according to administration of CHP, a zinc salt, or a mixture thereof, 20-week-old SD female mice (SLC/Central Experimental Animal Co. Ltd., Seoul, Korea) were purchased and raised under certain conditions (temperature: 22±2° C., relative humidity: 55±10%, light/dark cycle: 12 hours). 7 mice/group were allowed to freely drink water and eat food in a cage, subjected to an adaptation period of 1 week before the experiment, and used in the experiment.
After 6 weeks of the administration of CHP, a zinc salt, or a mixture thereof, the effect of alleviating osteoporosis in an ovariectomized animal model was analyzed using Micro CT. The bone mineral density of ovariectomized animals was measured by bone CT scanning of the 3 mm range at the front side of a 2 mm femoral growth plate using micro-CT (QuantumFX, Perkin Elmer, Massachusetts, USA). In addition, a bone volume fraction (BV/TV, %) was measured. The measurement results of the bone mineral density of the femur are illustrated in FIG. 1, and the bone volume fraction is illustrated in FIG. 2.

MC3T3-E1 cells = assay: Osteogenic differentiation of MC3T3-E1 osteoblasts, alkaline phosphatase (ALP) activity; assay type: cell-based
Procedure: MC3T3-E1 cells were incubated in MEMα, an ascorbic acid-free medium containing 10% FBS and 1% penicillin/streptomycin, in a 5% CO2 incubator at 37° C. To induce osteogenic differentiation, 10 mM β-glycerophosphate and […] of ascorbic acid was further added to the basal medium composition.
500 μl of 1×10^5 MC3T3-E1 cells were seeded into a 24-well plate and cultured for 24 hours until they reached 100% confluency. […] At this time, in the undifferentiated group, which is a negative control for differentiation, a basal medium was used instead of the differentiation medium. In the positive control treated with hPTH1-34, the medium was replaced with a differentiation medium 6 hours after the treatment. While the medium was replaced every 48 hours, each concentration of CHP and hPTH1-34 was treated for a total of 14 days.
On day 14 of differentiation, the medium was removed, followed by washing once with PBS and fixing in 4% paraformaldehyde (PFA) at room temperature for 5 minutes. 500 μl of a 1-STEP™ NBCT/BCIP solution was added to allow a reaction to occur at room temperature for 1 hour. The reaction product was washed with distilled water, and then dried at room temperature, and the degree of coloring of the cells was observed using a microscope. Subsequently, DMSO was added to each well, followed by shaking, and then absorbance at 525 nm was measured.

## O=C1N[C@@H](Cc2cnc[nH]2)C(=O)N2CCC[C@@H]12 [CHP, cyclo-hispro]
[1]; CHP alone administered to ovariectomized animal model, dose not stated (FIG. 1)
  bone mineral density of a femur: significantly increased
[1]; CHP alone administered to ovariectomized animal model, dose not stated (FIG. 2)
  bone volume fraction of a femur: significantly increased
[1]; group administered 1 mg/L of CHP in drinking water, 6 weeks, micro-CT
  bone volume fraction (BV/TV): restored to a level similar to that of the positive control (risedronate)
[1]; group administered 1 mg/L of CHP in drinking water, 6 weeks, micro-CT, compared to the ovariectomized group
  bone mineral density of the femur: significant increase
[1]; ovariectomized animal model, CHP alone
  effect on bone mineral density and bone volume fraction versus zinc salt-administered group and combined (zinc salt + CHP) administration group: significantly stronger
MC3T3-E1 cells; MC3T3-E1, 0.5, 1 or 2 mM CHP, day 14 of differentiation, compared to negative control
  osteogenic differentiation, degree of coloring (ALP staining, FIG. 3): remarkably increased degree of coloring compared to the negative control; also recorded: as the concentration of CHP treated was increased, osteogenic differentiation and bone modeling were promoted
MC3T3-E1 cells; MC3T3-E1, CHP 2 mM, day 14, compared to positive control hPTH1-34 10 nM
  ALP activity (absorbance at 525 nm, FIG. 4): level similar to that of the positive control; also recorded: same or similar to that of a positive control
